Reference: patent publication US6391924B1, “Taurine derivatives useable in the treatment of ophthalmic disorders” (priority 1997, dated 2002)

Assays:
frog retinas = conditions: in vitro; cited from earlier work
solubility in water = format: physicochemical
Protocol: The all-trans isomer of retinyliden tauret (i.e., all-trans-3,7-dimethyl-9-(2,6,6-trimehyl-1-cyclohexen-1-yl)-2,4,6,8-nonatetraen-1-imido-(N-sulfonic acid) prepared in this example has the following characterization: a) Absorbency Max […]., b) Extinction Coefficient at […] is 40200, c) upon protonation the absorbency Max shifts to 444 um, d) the Extinction Coefficient at 444 um is 40050 e) Melting Point is 115 C., -116° C. and soluability in water is 200 mg/ml.

Row | soluability in water (solubility in water) [mg/mL] | Compound | photoprotective effects (frog retinas)
1 | – | CC(C=CC1=C(C)CCCC1(C)C)=CC=CC(C)=CC=NCCS(=O)(=O)O [retinyliden tauret, 3,7-dimethyl-9-(2,6,6-trimehyl-1-cyclohexen-1-yl)-2,4,6,8-nonatetraen-1-imido-(N-ethanesulfonic acid)] | some photoprotective effects
2 | 200 | CC1=C(/C=C/C(C)=C/C=C/C(C)=C/C=NCCS(=O)(=O)O)C(C)(C)CCC1 (single isomer, unassigned) [all-trans isomer of retinyliden tauret, all-trans-3,7-dimethyl-9-(2,6,6-trimehyl-1-cyclohexen-1-yl)-2,4,6,8-nonatetraen-1-imido-(N-ethanesulfonic acid)] | –
